Assay results: patent US20130252951A1, “7-HYDROXY-PYRAZOLO[1,5-A] PYRIMIDINE COMPOUNDS AND THEIR USE AS CCR2 RECEPTOR ANTAGONISTS” (Proximagen Limited, priority 2010, published 2013)

Target: human CCR2 (Homo sapiens, UniProt P41597)
Assay: CCR2 functional calcium assay (FLIPR calcium flux, hMCP-1 challenge)
Type: cell-based
Design: expressed in transfected cells; host or cells: HEK293 EBNA cells
Details: HEK293 EBNA cells transfected with human CCR2, hMCP-1 challenge; read-out: Functional CCR2 fKi
Source text: The CCR2 receptor couples through the Gi/Gq signaling pathway and results in activation of calcium mobilization. The functional activity of test compounds was routinely tested by measuring the ability of compounds to antagonize CCR2 activity in a dose dependent manner, in HEK293 EBNA cells transfected with the human CCR2 receptor (hMCP-1 challenge), using a calcium flux Fluorescent Imaging Plate Reader FLIPR assay. Non-transfected HEK293 EBNA cells were used as control of non-specific response.
Briefly, test compounds were dissolved in dimethyl sulfoxide (DMSO) to a concentration of 10 mM and stored in matrix screenmate racks. The required amount of compound was transferred to 96-well compound plates on the day of assay and diluted in assay buffer to the required final concentration; dose-response measurements were assayed by making 1:3 serial dilutions to produce 10 point curves. The compounds were then transferred to 384-well assay plates ready for use. Top concentrations were adjusted depending on the potency of the compounds with a typical concentration range of 30 μM to 0.5 nM being used. The assay buffer used was HBSS buffer supplemented with 20 mM HEPES and 0.1% BSA, pH7.4. The loading/wash buffers were the same as the assay buffer.
Cells were suspended in culture medium at a density of 10000 cells/50 μl (the cell culture media composition was DMEM high glucose supplemented with 10% dialyzed FBS, 250 μg/ml Geneticin, and 400 μg/ml Hygromycin B), transferred to 384-well black/clear Costar plates (Costar #3712) (50 μl/well) and incubated at 37° C., in a 5% CO2/95% air humidified incubator for 16 h. The cells were washed with assay buffer at 37° C. using the Biotek ELx 405, washing 3 times, leaving 20 μl buffer in the well. 20 μl Fluo-4 (Fluo-4 stock solution (1 mM) was prepared by dissolving one vial of Fluo-4 (50 μg) in 45 μl of pluronic acid (240 mg/ml in DMSO). This stock solution of Fluo-4 was then diluted 250 times with loading buffer to give a Fluo-4 concentration of 4 μM. The dye solution (used within 2 h and kept away from light) was added to each well using a repeating multichannel pipette; the cells were then incubated at 37° C. for 60 min. Following the incubation, cells were washed in assay buffer at 37° C. using the Biotek ELx 405, washing 3 times, leaving 40 μl in each well and incubated for 10 min at 37° C. before use. A combined agonist/antagonist protocol was used. Compound (antagonist) was added to the cell plate using the FLIPR. Basal fluorescence was recorded every second for 10 seconds prior to compound addition (10 μl) and fluorescence recorded every second for 1 minute then every 6 seconds for a further 1 minute. Agonist (MCP-1) was then added using the FLIPR and fluorescence recorded as described above.
The positive control (agonist) was human recombinant MCP-1 which was stored as a stock concentration of 10 μM in distilled water and stored at −20° C. (maximal response: 30 nM; EC50 dose: 3-5 nM). The reference compound (antagonist) was RS102895 which was used as a 10 mM DMSO solution and stored at −20° C.
FLIPR responses were measured as peak minus basal fluorescence intensity and were expressed as a percentage of EC50 MCP-1 challenge. Curve-fitting and parameter estimation were carried out using GraphPad Prism 4.0 (GraphPad Software Inc., San Diego, Calif.).

Sequence of human CCR2 (P41597 whole entry): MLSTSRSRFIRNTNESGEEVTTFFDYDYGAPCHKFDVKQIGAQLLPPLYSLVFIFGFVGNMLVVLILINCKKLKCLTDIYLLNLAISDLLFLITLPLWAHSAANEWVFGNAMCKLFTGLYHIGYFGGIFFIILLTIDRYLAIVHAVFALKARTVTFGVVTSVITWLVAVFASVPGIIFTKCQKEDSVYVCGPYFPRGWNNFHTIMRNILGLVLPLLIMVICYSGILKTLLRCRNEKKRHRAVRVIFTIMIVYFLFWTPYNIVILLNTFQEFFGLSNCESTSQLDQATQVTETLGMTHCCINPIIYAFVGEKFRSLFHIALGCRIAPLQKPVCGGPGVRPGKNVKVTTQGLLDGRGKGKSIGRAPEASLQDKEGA

| Compound | Ki |
| --- | --- |
| CNC(=O)c1cnn2c(O)c(Cc3ccc(Cl)cc3)c(C)nc12 [Example 99, 6-[(4-Chlorophenyl)methyl]-7-hydroxy-N,5-dimethylpyrazolo[1,5-a]pyrimidine-3-carboxamide] | 100 to 1000 nM |
| CCOC(=O)c1nc2ccnn2c(O)c1Oc1ccc(Cl)c(F)c1 [Example 75, Ethyl 6-(4-chloro-3-fluorophenoxy)-7-hydroxypyrazolo[1,5-a]pyrimidine-5-carboxylate] | 10 to 100 nM |
| COCCNC(=O)c1cnn2c(O)c(Cc3ccc(C(F)(F)F)cc3)c(C)nc12 [Example 113, 7-Hydroxy-N-(2-methoxyethyl)-5-methyl-6-{[4-(trifluoromethyl)phenyl]methyl}pyrazolo [1,5-a]pyrimidine-3-carboxamide] | 100 to 1000 nM |
| COC(=O)c1nc2ccnn2c(O)c1Oc1ccc(Cl)c(Cl)c1 [Example 89, Methyl 6-(3,4-dichlorophenoxy)-7-hydroxypyrazolo[1,5-a]pyrimidine-5-carboxylate] | < 10 nM |
| Cc1nc2ccnn2c(O)c1C(C)c1ccc(Cl)cc1 (centres unmarked) [Example 11, 6-[1-(4-Chlorophenyl)ethyl]-5-methyl-pyrazolo[1,5-a]pyrimidin-7-ol] | 100 to 1000 nM |
| COCc1nc2ccnn2c(O)c1Cc1ccc(Cl)cc1 [Example 51, 6-[(4-Chlorophenyl)methyl]-5-(methoxy-methyl)pyrazolo[1,5-a]pyrimidin-7-ol] | 10 to 100 nM |
| Cc1nc2ccnn2c(O)c1Cc1ccc(C(F)(F)F)cc1 [Example 2, 5-Methyl-6-{[4-(trifluoromethyl)phenyl]methyl}pyrazolo[1,5-a]pyrimidin-7-ol] | 100 to 1000 nM |
| Cc1nc2c(C(=O)N3CCN(C)CC3)cnn2c(O)c1Cc1ccc(Cl)cc1 [Example 104, 6-[(4-Chlorophenyl)methyl]-5-methyl-3-[(4-methylpiperazin-1-yl)carbonyl]pyrazolo [1,5-a]pyrimidin-7-ol] | 100 to 1000 nM |
| CCc1nc2ccnn2c(O)c1Oc1ccc(F)c(F)c1 [Example 62, 6-(3,4-Difluorophenoxy)-5-ethyl-pyrazolo[1,5-a]pyrimidin-7-ol] | < 10 nM |
| CC(C)c1nc2ccnn2c(O)c1Oc1ccc(Cl)c(F)c1 [Example 67, 6-(4-Chloro-3-fluorophenoxy)-5-(propan-2-yl)pyrazolo[1,5-a]pyrimidin-7-ol] | < 10 nM |
| Oc1c(Cc2cc(F)c(F)c(F)c2)c(C2CC2)nc2ccnn12 [Example 26, 5-Cyclopropyl-6-[(3,4,5-trifluorophenyl)-methyl]pyrazolo[1,5-a]pyrimidin-7-ol] | < 10 nM |
| Oc1c(Cc2ccc(C(F)(F)F)c(F)c2)c(C2CC2)nc2ccnn12 [Example 32, 5-Cyclopropyl-6-{[3-fluoro-4-(trifluoromethyl)phenyl]methyl}pyrazolo[1,5-a]pyrimidin-7-ol] | < 10 nM |
| Cc1nc2ccnn2c(O)c1Oc1ccc(Cl)c(Cl)c1 [Example 60, 6-(3,4-Dichlorophenoxy)-5-methyl-pyrazolo[1,5-a]pyrimidin-7-ol] | 10 to 100 nM |
| CCc1nc2c(C(=O)NCCOC)cnn2c(O)c1Cc1ccc(Cl)cc1 [Example 117, 6-[(4-Chlorophenyl)methyl]-5-ethyl-7-hydroxy-N-(2-methoxyethyl)pyrazolo-[1,5-a]pyrimidine-3-carboxamide] | 10 to 100 nM |
| Cc1ccc(Cc2c(C)nc3c(C(=O)NCCc4ccccn4)cnn3c2O)cc1 [Example 111, 7-Hydroxy-5-methyl-6-[(4-methylphenyl)-methyl]-N-[2-(pyridin-2-yl)ethyl]pyrazolo-[1,5-a]pyrimidine-3-carboxamide] | 100 to 1000 nM |
| CC(C)c1nc2ccnn2c(O)c1Oc1ccc(Cl)c(Cl)c1 [Example 68, 6-(3,4-diChlorophenoxy)-5-(propan-2-yl)-pyrazolo[1,5-a]pyrimidin-7-ol] | < 10 nM |
| Oc1c(Cc2cc(F)c(F)c(F)c2)c(C2CCC2)nc2ccnn12 [Example 49, 5-Cyclobutyl-6-[(3,4,5-trifluorophenyl)-methyl]pyrazolo[1,5-a]pyrimidin-7-ol] | < 10 nM |
| Oc1c(Cc2ccc(F)c(C(F)(F)F)c2)c(C2CC2)nc2ccnn12 [Example 31, 5-Cyclopropyl-6-{[4-fluoro-3-(trifluoro-methyl)phenyl]methyl}pyrazolo[1,5-a]-pyrimidin-7-ol] | < 10 nM |

More lines, now with the values ahead:

| Ki | Compound |
| --- | --- |
| 10 to 100 nM | CC(=O)c1nc2ccnn2c(O)c1Cc1cccc(F)c1 [Example 94, 1-{6-[(3-Fluorophenyl)methyl]-7-hydroxypyrazolo[1,5-a]pyrimidin-5-yl}ethan-1-one] |
| < 10 nM | Oc1c(Cc2cc(F)cc(F)c2)c(C2CC2)nc2ccnn12 [Example 25, 5-Cyclopropyl-6-[(3,5-difluorophenyl)-methyl]pyrazolo[1,5-a]pyrimidin-7-ol] |
| 100 to 1000 nM | O=C(O)c1nc2ccnn2c(O)c1Cc1cccc(Cl)c1 [Example 85, 6-[(3-Chlorophenyl)methyl]-7-hydroxypyrazolo[1,5-a]pyrimidine-5-carboxylic acid] |
| 10 to 100 nM | Oc1c(Cc2cccc(OC(F)(F)F)c2)c(C2CC2)nc2ccnn12 [Example 20, 5-Cyclopropyl-6-{[3-(trifluoromethoxy)-phenyl]methyl}pyrazolo[1,5-a]pyrimidin-7-ol] |
| < 10 nM | COC(=O)c1nc2ccnn2c(O)c1Cc1cccc(Cl)c1 [Example 81, Methyl 6-[(3-chlorophenyl)methyl]-7-hydroxypyrazolo[1,5-a]pyrimidine-5-carboxylate] |
| < 10 nM | Oc1c(Cc2ccc(Cl)c(Cl)c2)c(C(F)(F)F)nc2ccnn12 [Example 55, 6-[(3,4-Dichlorophenyl)methyl]-5-(trifluoromethyl)pyrazolo[1,5-a]pyrimidin-7-ol] |
| 100 to 1000 nM | CCN(c1cccc(F)c1)c1c(C)nc2ccnn2c1O [Example 79, 6-[Ethyl(3-fluorophenyl)amino]-5-methylpyrazolo[1,5-a]pyrimidin-7-ol] |
| < 10 nM | CC(C)OC(=O)c1nc2ccnn2c(O)c1Cc1cccc(Cl)c1 [Example 82, Propan-2-yl 6-[(3-chlorophenyl)methyl]-7-hydroxypyrazolo[1,5-a]pyrimidine-5-carboxylate] |
| < 10 nM | CCc1nc2ccnn2c(O)c1Cc1ccc(Cl)c(Cl)c1 [Example 15, 6-[(3,4-Dichlorophenyl)methyl]-5-ethylpyrazolo[1,5-a]pyrimidin-7-ol] |
| 100 to 1000 nM | Oc1c(Cc2cccc(F)c2)c(-c2cnccn2)nc2cncn12 [Example 3, 3-[(3-Fluorophenyl)methyl]-2-(pyrazin-2-yl)imidazo[1,5-a]pyrimidin-4-ol] |
| 100 to 1000 nM | Cc1nc2ccnn2c(O)c1Cc1cccc(F)c1F [Example 7, 6-[(2,3-Difluorophenyl)methyl]-5-methyl-pyrazolo[1,5-a]pyrimidine-7-ol] |
| 10 to 100 nM | CCOC(=O)c1nc2ccnn2c(O)c1Cc1cccc(C(F)(F)F)c1 [Example 71, Ethyl 7-hydroxy-6-{[3-(trifluoromethyl)-phenyl]methyl}pyrazolo[1,5-a]pyrimidine-5-carboxylate] |
| 10 to 100 nM | CC(=O)c1nc2ccnn2c(O)c1Cc1ccc(Cl)c(Cl)c1 [Example 96, 1-{6-[(3,4-Dichlorophenyl)methyl]-7-hydroxypyrazolo[1,5-a]pyrimidin-5-yl}ethan-1-one] |
| < 10 nM | CCc1nc2ccnn2c(O)c1Cc1ccc(F)c(Cl)c1 [Example 14, 6-[(3-Chloro-4-fluorophenyl)methyl]-5-ethylpyrazolo[1,5-a]pyrimidin-7-ol] |
| 100 to 1000 nM | CC(C)(O)c1nc2ccnn2c(O)c1Cc1cccc(F)c1 [Example 93, 6-[(3-Fluorophenyl)methyl]-5-(2-hydroxypropan-2-yl)pyrazolo[1,5-a]pyrimidin-7-ol] |
| 100 to 1000 nM | Cc1nc2ccnn2c(O)c1Sc1cccc(F)c1 [Example 77, 6-[(3-Fluorophenyl)sulfanyl]-5-methyl-pyrazolo[1,5-a]pyrimidin-7-ol] |
| < 10 nM | Oc1c(Cc2ccc(F)c(Cl)c2)c(C2CCC2)nc2ccnn12 [Example 46, 6-[(3-Chloro-4-fluorophenyl)methyl]-5-cyclobutylpyrazolo[1,5-a]pyrimidin-7-ol] |
